System: rat primary dopaminergic neurons (TH positive neurons)
Assay: Neuroprotective effect on rat primary cultures of dopaminergic neurons injured by 6-OHDA (count of TH positive neurons)
Format: cell-based
Conditions: for survival of primary dopaminergic neuron culture (TH positive neurons), % of control: p<0.05 vs 6-OHDA
Procedure: Accordingly, this study investigates the effect of queuine on rat primary mesencephalic cultures injured by exposure to 6-OHDA.
Rat dopaminergic neurons are cultured as described by Schinelli et al. (1988) J. Neurochem. 50:1900-1907.
Briefly, pregnant female rats (Wistar rats; Janvier) at 15 days of gestation are killed by cervical dislocation and the fetuses are removed from the uterus. The embryonic midbrains is removed and placed in ice-cold Leibovitz medium (L15; PanBiotech) containing 2% of Penicillin-Streptomycin (PS; PanBiotech) and 1% of bovine serum albumin (BSA; PanBiotech). Only the ventral portions of the mesencephalic flexure is used for cell preparations as this is the region of the developing brain rich in dopaminergic neurons. The midbrain is dissociated by trypsinisation for 20 min at 37° C. (Trypsin EDTA 1X; PanBiotech). The reaction is stopped by the addition of Dulbecco's modified Eagle's medium (DMEM; PanBiotech) containing DNAse I grade II (0.1 mg/mL; Roche Diagnostic) and 10% of fetal calf serum (FCS; Invitrogen). The cells are mechanically dissociated by 3 passages through a 10 ml pipette. The dissociated cells are then centrifuged at 180×g for 10 min at 4° C. on a layer of BSA (3.5%) in L15 medium. The supernatant is discarded and the pelleted cells are re-suspended in a culture medium consisting of Neurobasal (Invitrogen, Ref: 21103, Batch: 1725098) supplemented with B27 (2%; Invitrogen, ref: 17504), L-glutamine (2 mM; PanBiotech, Ref: P04-80100) and 2% of PS, 10 ng/mL of BDNF (PanBiotech, Ref: CB-1115002) and 1 ng/mL of GDNF (PanBiotech, Ref: CB-1116001). Viable cells are counted in a Neubauer cytometer using the trypan blue exclusion test. The cells are then seeded at a density of 40 000 cells/well in 96 well-plates pre-coated with poly-D-lysine (Greiner) and are cultured at 37° C. in a humidified air (95%)/CO2 (5%) atmosphere. Half of the medium is changed every 2 days with fresh medium. In these conditions, after 5 days of culture, astrocytes are present in the culture and release growth factor allowing neurons differentiation. Five to six percent of the neuronal cell population are dopaminergic neurons.
Each condition is replicated in six wells of the 96-wells culture plates. 1.4. End Point Evaluation: Determination of the Total Number of Dopaminergic Neurons
At the end of the incubation time, the cells are fixed by a solution of 4% paraformaldehyde for 20 min at room temperature. The cells are then permeabilized and non-specific sites are blocked with a solution of phosphate buffered saline (PBS; PanBiotech) containing 0.1% of saponin (Sigma) and 1% fetal calf serum (FCS) for 15 min at room temperature. Eventually, the cells are incubated with a monoclonal anti-Tyrosine Hydroxylase (TH) mouse antibody (Sigma) in PBS containing 1% FCS and 0.1% saponin, for 2 h at room temperature. The anti-TH antibody targets dopaminergic neurons.
The nuclei of the cells is stained by a fluorescent marker (Hoechst solution, SIGMA) in the same solution.
For each condition, 20 pictures per well are taken using InCell Analyzer™ 2000 (GE Healthcare) with 20× magnification. Images of each culture well are also taken.
The analysis of the cell bodies of TH positive neurons are performed using Developer software (GE healthcare). A total of 6 data per experimental condition is provided. All values are expressed as mean±s.e. mean. For statistical analyses ANOVA is performed followed by Dunnett's test.

For NCCc1cc(O)c(O)cc1O [6-OHDA, 6-hydroxydopamine, reference compound], the “effect on number of TH positive neurons” value (6-OHDA alone at 20 μM for 48 h, FIG. 1 and FIG. 2) was “large and significant decrease”.

With Nc1nc2[nH]cc(CN[C@H]3C=C[C@H](O)[C@@H]3O)c2c(=O)[nH]1 [queuine, 7-(3,4-trans-4,5-cis-dihydroxy-1-cyclopenten-3-ylaminomethyl)-7-deazaguanine] the “effect on 6-OHDA-induced neurotoxicity” value (preliminary results, rat primary mesencephalic cultures) was “neuroprotective effect”, the “survival of primary dopaminergic neuron culture (TH positive neurons), % of control” value (“survival … % of control” below) (queuine 0.3 μM added 6 days before 6-OHDA intoxication (20 μM, 48 h), FIG. 2) was 80.47 % of the control and the “survival … % of control” value (queuine 1 μM added 1 day (24 hours) before 6-OHDA intoxication (20 μM, 48 h), FIG. 1) was 81.33 % of the control.

B1: BDNF: brain-derived neurotrophic factor, obtained from PanBiotech, used as positive control (protein, UniProt P23560 19-247, looked up)
Neurotrophic factor BDNF …: APMKEANIRGQGGLAYPGVRTHGTLESVNGPKAGSRGLTSLADTFEHVIEELLDEDQKVRPNEENNKDADLYTSRVMLSSQVPLEPPLLFLLEEYKNYLDAANMSMRVRRHSDPARRGELSVCDSISEWVTAADKKTAVDMSGGTVTVLEKVPVSKGQLKQYFYETKCNPMGYTKEGCRGIDKRHWNSQCRTTQSYVRALTMDSKKRIGWRFIRIDTSCVCTLTIKRGR
For B1, the “survival … % of control” value (BDNF 50 ng/mL applied 1 day before 6-OHDA intoxication (20 μM, 48 h), FIG. 1) was 80.80 % of the control and the “survival … % of control” value (BDNF 50 ng/mL applied 6 days before 6-OHDA intoxication (20 μM, 48 h), FIG. 2) was 83.44 % of the control.

From patent US11684611B2, “Compounds for treating diseases associated with a mitochondrial dysfunction” (Amabiotics, priority 2016, dated 2023)
